Where two headings read alike, the source gives them in different places.
Experiments:
pTau = pTau assay (no method described); type: cell-based
GSK3α = GSK3α (Homo sapiens, UniProt P49840); test: GSK3α kinase assay (Caliper LabChip3000 mobility shift, fluoresceinated peptide substrate)
GSK3β = GSK3β (Homo sapiens, UniProt P49841); test: GSK3β kinase assay (Caliper LabChip3000 mobility shift, fluoresceinated peptide substrate); type: biochemical
[1] = 250 pM enzyme, 20 uM ATP, 1.5 uM peptide, 20 hours room temperature, first value of cell GSK3β/GSK3α, read-out: GSK3β (nM), IC50

Chain of GSK3β (P49841 whole entry, species assumed): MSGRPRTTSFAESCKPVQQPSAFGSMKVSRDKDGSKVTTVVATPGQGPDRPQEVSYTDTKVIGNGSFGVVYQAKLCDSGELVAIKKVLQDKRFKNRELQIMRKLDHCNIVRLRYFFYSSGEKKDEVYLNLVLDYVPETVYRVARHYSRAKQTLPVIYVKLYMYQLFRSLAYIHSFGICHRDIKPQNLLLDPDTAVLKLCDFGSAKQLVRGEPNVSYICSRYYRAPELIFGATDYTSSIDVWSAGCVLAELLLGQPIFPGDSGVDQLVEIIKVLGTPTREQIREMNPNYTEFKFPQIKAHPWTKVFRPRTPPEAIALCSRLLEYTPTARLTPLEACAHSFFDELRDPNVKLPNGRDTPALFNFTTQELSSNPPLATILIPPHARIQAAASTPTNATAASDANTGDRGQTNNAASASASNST
Chain of GSK3α (P49840 whole entry, species assumed): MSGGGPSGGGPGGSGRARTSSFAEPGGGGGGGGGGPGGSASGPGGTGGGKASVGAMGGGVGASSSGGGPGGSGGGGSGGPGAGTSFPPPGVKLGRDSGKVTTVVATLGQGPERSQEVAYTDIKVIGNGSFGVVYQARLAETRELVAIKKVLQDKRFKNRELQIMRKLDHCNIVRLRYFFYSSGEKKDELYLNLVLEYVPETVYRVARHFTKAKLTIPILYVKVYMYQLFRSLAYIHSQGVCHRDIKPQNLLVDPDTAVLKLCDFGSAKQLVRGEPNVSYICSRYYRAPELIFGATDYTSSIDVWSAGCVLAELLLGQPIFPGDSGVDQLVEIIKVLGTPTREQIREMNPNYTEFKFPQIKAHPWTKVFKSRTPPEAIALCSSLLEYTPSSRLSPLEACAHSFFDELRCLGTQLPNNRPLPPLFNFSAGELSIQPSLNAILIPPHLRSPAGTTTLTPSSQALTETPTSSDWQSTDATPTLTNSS

SMILES	IC50 (pTau) [nM]	IC50 (GSK3α) [nM]	IC50 (GSK3β; [1]) [nM]	IC50 (GSK3β) [nM]
O=C(Nc1cncnc1OCC(F)(F)F)c1ccnc(Nc2ccc(C(F)(F)F)cc2)n1 [Example 68, N-(4-(2,2,2-Trifluoroethoxy)pyrimidin-5-yl)-2-((4-(trifluoromethyl)phenyl)amino)pyrimidine-4-carboxamide]	90	1.3	0.73	–
COc1ccc(Nc2nccc(C(=O)Nc3cncnc3OCC(F)(F)F)n2)cc1 [Example 77, 2-((4-Methoxyphenyl)amino)-N-(4-(2,2,2-trifluoroethoxy)pyrimidin-5-yl)pyrimidine-4-carboxamide]	100	0.47	0.79	–
CC(C)(C)CNc1nccc(C(=O)Nc2cnc(F)cc2N2CCOCC2)n1 [Example 173]	69	0.49	–	1.1
O=C(Nc1cnc(F)cc1N1CCOCC1)c1ccnc(Nc2ccc(Cl)c(F)c2)n1 [Example 169, 2-((4-Chloro-3-fluorophenyl)amino)-N-(6-fluoro-4-morpholinopyridin-3-yl)pyrimidine-4-carboxamide]	34	0.15	0.27	–
O=C(Nc1cnccc1-c1ccccc1)c1ccnc(Nc2cc(OC(F)F)c(Cl)cc2F)n1 [Example 33, 2-((4-Chloro-5-(difluoromethoxy)-2-fluorophenyl)amino)-N-(4-phenylpyridin-3-yl)pyrimidine-4-carboxamide]	700	2.1	2.3	–
CN(C)CCOc1ccc(Nc2nccc(C(=O)Nc3cnccc3-c3ccccc3)n2)cn1 [Example 96, 2-((6-(2-(Dimethylamino)ethoxy)pyridin-3-yl)amino)-N-(4-phenylpyridin-3-yl)pyrimidine-4-carboxamide]	900	11	18	–
O=C(Nc1cnccc1C1CCOCC1)c1ccnc(Nc2ccc(OC(F)F)nc2)n1 [Example 80, 2-((6-(Difluoromethoxy)pyridin-3-yl)amino)-N-(4-(tetrahydro-2H-pyran-4-yl)pyridin-3-yl)pyrimidine-4-carboxamide]	86	0.65	2.4	–
O=C(Nc1cnccc1-c1ccccc1)c1ccnc(Nc2ccc(Cl)cc2F)n1 [Example 26, 2-((4-Chloro-2-fluorophenyl)amino)-N-(4-phenylpyridin-3-yl)pyrimidine-4-carboxamide]	110	0.33	0.57	–
CC1(CNc2nccc(C(=O)Nc3cncnc3OCC(F)(F)F)n2)COC1 [Example 191, 2-(((3-Methyloxetan-3-yl)methyl)amino)-N-(4-(2,2,2-trifluoroethoxy)pyrimidin-5-yl)pyrimidine-4-carboxamide]	240	4.3	–	3.3
O=C(Nc1cncnc1NCC1CC1)c1ccnc(Nc2ccccc2)n1 [Example 79, N-(4-((Cyclopropylmethyl)amino)pyrimidin-5-yl)-2-(phenylamino)pyrimidine-4-carboxamide]	8000	98	160	–
Cc1cc(Nc2nccc(C(=O)Nc3cnccc3-c3ccccc3)n2)sn1 [Example 95, 2-((3-Methylisothiazol-5-yl)amino)-N-(4-phenylpyridin-3-yl)pyrimidine-4-carboxamide]	78	0.7	5.7	–
CCNc1nccc(C(=O)Nc2cnccc2OCC(F)(F)F)n1 [Example 123, 2-(Ethylamino)-N-(4-(2,2,2-trifluoroethoxy)pyridin-3-yl)pyrimidine-4-carboxamide]	55	4.5	0.92	–
CN1CCC(Nc2nccc(C(=O)Nc3cnccc3-c3ccccc3F)n2)CC1 [Example 162, N-(4-(2-Fluorophenyl)pyridin-3-yl)-2-((1-methylpiperidin-4-yl)amino)pyrimidine-4-carboxamide]	2200	39	32	–
O=C(Nc1cnccc1-c1ccccc1)c1ccnc(Nc2cc(F)c(Cl)cc2F)n1 [Example 32, 2-((4-Chloro-2,5-difluorophenyl)amino)-N-(4-phenylpyridin-3-yl)pyrimidine-4-carboxamide]	100	0.56	0.48	–
CNc1nccc(C(=O)Nc2cnccc2-c2ccc(F)cc2F)n1 [Example 158, N-(4-(2,4-Difluorophenyl)pyridin-3-yl)-2-(methylamino)pyrimidine-4-carboxamide]	96	1.9	2.4	–
O=C(Nc1cnccc1-c1ccc(F)cc1)c1ccnc(NC2CCCC2)n1 [Example 148, 2-(Cyclopentylamino)-N-(4-(4-fluorophenyl)pyridin-3-yl)pyrimidine-4-carboxamide]	51	0.3	0.35	–
O=C(Nc1cncnc1N1CCOCC1)c1ccnc(NCC2CCOCC2)n1 [Example 206, N-(4-Morpholinopyrimidin-5-yl)-2-(((tetrahydro-2H-pyran-4-yl)methyl)amino)pyrimidine-4-carboxamide]	4700	99	74	–

SMILES	IC50 (pTau) [nM]	IC50 (GSK3α) [nM]	IC50 (GSK3β; [1]) [nM]	IC50 (GSK3β) [nM]
O=C(Nc1cnccc1-c1ccccc1)c1ccnc(Nc2ccc(OC(F)(F)F)cc2)n1 [Example 12, N-(4-Phenylpyridin-3-yl)-2-((4-(trifluoromethoxy)phenyl)amino)pyrimidine-4-carboxamide]	210	0.9	1.9	–
CN1CCC(Nc2nccc(C(=O)Nc3cnccc3-c3ccccc3)n2)CC1 [Example 165, 2-((1-Methylpiperidin-4-yl)amino)-N-(4-phenylpyridin-3-yl)pyrimidine-4-carboxamide]	3300	110	91	–
O=C(Nc1cnccc1OCC(F)(F)F)c1ccnc(Nc2ccc(C(F)(F)F)cn2)n1 [Example 111, N-(4-(2,2,2-Trifluoroethoxy)pyridin-3-yl)-2-((5-(trifluoromethyl)pyridin-2-yl)amino)pyrimidine-4-carboxamide]	220	2.2	2.9	–
O=C(Nc1cncnc1Nc1ccccc1)c1ccnc(Nc2ccccc2)n1 [Example 75, 2-(Phenylamino)-N-(4-(phenylamino)pyrimidin-5-yl)pyrimidine-4-carboxamide]	4500	33	48	–
CC(C)C(C)Nc1nccc(C(=O)Nc2cnccc2OCC(F)(F)F)n1 (stereo not drawn) [Example 125, 2-((3-Methylbutan-2-yl)amino)-N-(4-(2,2,2-trifluoroethoxy)pyridin-3-yl)pyrimidine-4-carboxamide]	55	0.84	1.1	–
O=C(Nc1cnccc1OCC(F)(F)F)c1ccnc(Nc2ccc(C(F)(F)F)cc2)n1 [Example 58, N-(4-(2,2,2-Trifluoroethoxy)pyridin-3-yl)-2-((4-(trifluoromethyl)phenyl)amino)pyrimidine-4-carboxamide]	10	0.18	0.3	–
O=C(Nc1cncnc1)c1ccnc(N[C@H]2C[C@@H]2c2ccccc2)n1 [Example 202, 2-(((1S,2R)-2-Phenylcyclopropyl)amino)-N-(pyrimidin-5-yl)pyrimidine-4-carboxamide]	2300	57	120	–
O=C(Nc1cncc(-c2ccccc2F)c1)c1ccnc(Nc2ccc(F)nc2)n1 [Example 104, N-(5-(2-Fluorophenyl)pyridin-3-yl)-2-((6-fluoropyridin-3-yl)amino)pyrimidine-4-carboxamide]	660	2.1	4.8	–
O=C(Nc1cnccc1-c1ccc(F)cc1)c1ccnc(Nc2ccccc2)n1 [Example 43, N-(4-(4-Fluorophenyl)pyridin-3-yl)-2-(phenylamino)pyrimidine-4-carboxamide]	34	0.19	0.25	–
Cc1cc(Nc2nccc(C(=O)Nc3cnccc3-c3ccccc3)n2)ccc1F [Example 17, 2-((4-Fluoro-3-methylphenyl)amino)-N-(4-phenylpyridin-3-yl)pyrimidine-4-carboxamide]	60	0.47	0.64	–
Cn1cc(Nc2nccc(C(=O)Nc3cnccc3-c3ccccc3)n2)nn1 [Example 99, 2-((1-Methyl-1H-1,2,3-triazol-4-yl)amino)-N-(4-phenylpyridin-3-yl)pyrimidine-4-carboxamide]	10000	190	78	–
O=C(Nc1cnccc1-c1ccccc1)c1ccnc(NC2CCCOC2)n1 (stereo not drawn) [Example 94, N-(4-Phenylpyridin-3-yl)-2-((tetrahydro-2H-pyran-3-yl)amino)pyrimidine-4-carboxamide]	210	3.5	5.1	–
CC1CC(Nc2nccc(C(=O)Nc3cnccc3OCC(F)(F)F)n2)CC(C)O1 (stereo not drawn) [Example 133, 2-((2,6-Dimethyltetrahydro-2H-pyran-4-yl)amino)-N-(4-(2,2,2-trifluoroethoxy)pyridin-3-yl)pyrimidine-4-carboxamide]	380	38	1.9	–
O=C(Nc1cnccc1-c1ccccc1)c1ccnc(Nc2ccncc2)n1 [Example 35, N-(4-Phenylpyridin-3-yl)-2-(pyridin-4-ylamino)pyrimidine-4-carboxamide]	30	0.63	1.1	–
O=C(Nc1cnccc1-c1ccccc1)c1ccnc(Nc2ccc(C(F)(F)F)nc2)n1 [Example 39, N-(4-Phenylpyridin-3-yl)-2-((6-(trifluoromethyl)pyridin-3-yl)amino)pyrimidine-4-carboxamide]	470	1.5	3.4	–
Cc1cc(N2CCC(F)(F)CC2)c(NC(=O)c2ccnc(Nc3ccc(Cl)cc3)n2)cn1 [Example 182, 2-((4-Chlorophenyl)amino)-N-(4-(4,4-difluoropiperidin-1-yl)-6-methylpyridin-3-yl)pyrimidine-4-carboxamide]	220	1	2.5	–
